# Test results reported in ChEMBL document CHEMBL1201862, “PubChem BioAssay data set” (2004).
# Calls of active or inactive are those of the source.
# Experiments:
# [1] = target: Fructose-bisphosphate aldolase (Mycobacterium tuberculosis, UniProt P9WQA3); assay: Fluorescence-based biochemical high throughput dose response assay for inhibitors of the fructose-bisphosphate aldolase (FBA) of M. tuberculosis.; type: functional
# [2] = HEK293T cytotoxicity, dose response, cytotoxicity control for miR-122 modulator project, cell-based, inhibitor set, cherry-pick, set 2 (AID 720697); type: functional
# [3] = Luminescence Cell-Based Dose Retest to Confirm Inhibitors of Cancer Stem Cells. [Related pubchem assays (depositor defined):AID2717, AID2721]; type: functional; conditions: Homo sapiens
# [4] = test system: H9c2; assay: cells; type: functional, cell-based; conditions: Rattus norvegicus, H9c2, Myocardium;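 note: confirmatory concentration-response retest of ultra-high-throughput screening hits for modulation of myocardial damage; cell death induced by hydrogen peroxide oxidative stress; compound pretreatment for 60 min then peroxide exposure for 2 h; potency is for protecting the cells against peroxide damage rather than for killing them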
# [5] = HEK293T cell cytotoxicity, dose response, cytotoxicity control, CellTiter-Glo luminescence, cherry-picked samples, set 4 (AID 743441); type: functional, cell-based; conditions: HEK293
# [6] = Vibrio cholerae quorum sensing activators (AID 686977); type: functional
# [7] = test system: A549; assay: A549 cell toxicity, dose response, cytotoxicity control, plate reader, cherry-pick samples (AID 687028); type: functional, cell-based; conditions: Homo sapiens
# [8] = test system: Vero; assay: Vero cell toxicity, dose response, cytotoxicity control, plate reader, cherry-pick samples (AID 687020); type: functional, cell-based; conditions: Chlorocebus sabaeus
# [9] = cytotoxicity in OVCAR8 ovarian cancer cells, dose response, PAX8 project, cell-based, plate reader, dry powder samples (AID 743197); type: functional; conditions: OVCAR-8
# [10] = NIH:OVCAR-3 ovarian cancer cell cytotoxicity, dose response, PAX8 inhibitor project, plate reader, dry powder samples (AID 743044); type: functional, cell-based
# [11] = HepG2 cell cytotoxicity, dose response, cytotoxicity control, plate reader, cherry-pick, antagonist series (AID 743416); type: functional, cell-based
# [12] = IGROV1 ovarian cancer cell cytotoxicity, dose response, PAX8 inhibitor project, plate reader, dry powder samples (AID 743043); type: functional, cell-based; conditions: IGROV-1
# [13] = A549 cell cytotoxicity, dose response, cytotoxicity control, plate reader, cherry-pick, antagonist series (AID 743412); type: functional, cell-based
# [14] = LGR2 antagonists, dose response, cell-based, HEK293, CRE-luciferase reporter, cherry pick, set 2 (AID 743343); type: functional;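 note: transfected cells were stimulated with diluted bursicon conditioned medium after compound addition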
# [15] = HEK293 cell cytotoxicity, dose response, cytotoxicity control, plate reader, cherry-picked samples (AID 743446); type: functional, cell-based
# [16] = MC4R antagonists, dose response, counter-screen for LGR2 antagonist project, cell-based, plate reader, cherry pick (AID 743444); type: functional;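 note: transfected HEK 293 cells stimulated with alpha-MSH peptide; potency of inhibitors of the alpha-MSH evoked signal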
# [17] = target: Paired box protein Pax-8 (Homo sapiens, UniProt Q06710); assay: inhibitors of PAX8-driven TPO luciferase reporter, dose response, RMG-I cells, cherry-pick (AID 687027); type: functional, cell-based;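 note: luciferase reporter driven by Pax8 target thyroperoxidase promoter measured by SteadyGlo luminescence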
# Paired box protein Pax-8, sequence (Q06710 whole entry): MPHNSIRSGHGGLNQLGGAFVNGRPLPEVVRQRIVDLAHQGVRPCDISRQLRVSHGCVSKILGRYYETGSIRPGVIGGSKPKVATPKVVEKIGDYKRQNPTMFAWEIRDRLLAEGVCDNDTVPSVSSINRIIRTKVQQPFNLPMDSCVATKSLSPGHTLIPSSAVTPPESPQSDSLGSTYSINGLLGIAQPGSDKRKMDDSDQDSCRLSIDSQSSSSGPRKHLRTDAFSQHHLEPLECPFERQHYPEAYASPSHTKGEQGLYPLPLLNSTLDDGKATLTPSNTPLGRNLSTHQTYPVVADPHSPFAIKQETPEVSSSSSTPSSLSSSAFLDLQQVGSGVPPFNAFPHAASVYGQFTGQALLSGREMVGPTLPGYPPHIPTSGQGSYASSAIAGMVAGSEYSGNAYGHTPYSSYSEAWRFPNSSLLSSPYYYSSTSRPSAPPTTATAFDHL
# [18] = test system: Cryptococcus neoformans; assay: PubChem AID 686997; type: functional, organism-based; conditions: Cryptococcus neoformans
# [19] = test system: Cryptococcus neoformans; assay: Cryptococcus growth inhibition by alamar blue – cell lysis, cherry-picks, replicate tests, mechanism study for C. neoformans antifungal project, dose response (AID 686999); type: functional, organism-based
# [20] = HEK293 cell viability, dose response, counter-screen for EBV LMP1 inhibitor project, dry powder, set 2 (AID 624374); type: functional
# [21] = LMP1-driven NF-kB reporter inhibition, dose response, cell-based, luciferase reporter, luminescence, dry powder, set 2 (AID 624376); type: functional
# [22] = target: T1, Sentrin-specific protease 8 (Homo sapiens, UniProt Q96LD8); type: functional
# T1 sequence (Q96LD8 whole entry): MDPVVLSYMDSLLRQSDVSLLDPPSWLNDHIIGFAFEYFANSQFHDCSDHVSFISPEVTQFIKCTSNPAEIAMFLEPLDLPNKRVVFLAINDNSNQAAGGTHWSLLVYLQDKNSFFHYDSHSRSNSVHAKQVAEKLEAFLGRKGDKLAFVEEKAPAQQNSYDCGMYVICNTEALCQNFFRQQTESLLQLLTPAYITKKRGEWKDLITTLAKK
# [23] = target: Genome polyprotein (dengue virus type 2, UniProt P29990); assay: Dengue-2 NS5 methyltransferase inhibitors, primary screen, biochemical, confirmation dose response (AID 588689); type: functional
# Genome polyprotein, sequence (P29990 2492-3391 limits assumed): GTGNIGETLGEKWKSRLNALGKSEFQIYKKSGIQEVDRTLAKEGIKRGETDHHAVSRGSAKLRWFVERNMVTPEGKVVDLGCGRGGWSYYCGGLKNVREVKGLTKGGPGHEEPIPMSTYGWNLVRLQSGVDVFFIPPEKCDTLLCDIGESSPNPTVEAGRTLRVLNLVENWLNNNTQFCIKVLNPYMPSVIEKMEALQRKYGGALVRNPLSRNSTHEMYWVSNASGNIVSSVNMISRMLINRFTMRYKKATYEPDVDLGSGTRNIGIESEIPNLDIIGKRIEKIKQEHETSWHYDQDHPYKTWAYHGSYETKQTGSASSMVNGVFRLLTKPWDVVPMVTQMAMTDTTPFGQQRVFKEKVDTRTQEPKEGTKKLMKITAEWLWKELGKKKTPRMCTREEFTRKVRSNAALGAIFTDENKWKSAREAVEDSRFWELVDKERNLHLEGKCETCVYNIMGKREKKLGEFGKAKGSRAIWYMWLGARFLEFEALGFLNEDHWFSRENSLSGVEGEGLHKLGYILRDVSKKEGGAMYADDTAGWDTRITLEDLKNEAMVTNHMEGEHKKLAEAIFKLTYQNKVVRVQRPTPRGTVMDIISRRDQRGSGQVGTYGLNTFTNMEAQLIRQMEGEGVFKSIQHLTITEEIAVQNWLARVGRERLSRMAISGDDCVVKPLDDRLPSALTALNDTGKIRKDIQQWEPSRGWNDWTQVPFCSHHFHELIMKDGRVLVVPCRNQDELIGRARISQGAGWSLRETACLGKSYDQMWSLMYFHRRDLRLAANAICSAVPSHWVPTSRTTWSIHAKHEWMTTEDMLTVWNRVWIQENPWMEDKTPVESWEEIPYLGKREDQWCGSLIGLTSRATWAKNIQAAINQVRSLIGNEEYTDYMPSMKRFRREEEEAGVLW
# [24] = target: T2, Replicative DNA helicase DnaB (Mycobacterium tuberculosis, UniProt P9WMR3); assay: DnaB intein splicing inhibitors, dose response, biochemical, cell-free fluorescence (AID 449749); type: functional
# T2 sequence (P9WMR3 whole entry): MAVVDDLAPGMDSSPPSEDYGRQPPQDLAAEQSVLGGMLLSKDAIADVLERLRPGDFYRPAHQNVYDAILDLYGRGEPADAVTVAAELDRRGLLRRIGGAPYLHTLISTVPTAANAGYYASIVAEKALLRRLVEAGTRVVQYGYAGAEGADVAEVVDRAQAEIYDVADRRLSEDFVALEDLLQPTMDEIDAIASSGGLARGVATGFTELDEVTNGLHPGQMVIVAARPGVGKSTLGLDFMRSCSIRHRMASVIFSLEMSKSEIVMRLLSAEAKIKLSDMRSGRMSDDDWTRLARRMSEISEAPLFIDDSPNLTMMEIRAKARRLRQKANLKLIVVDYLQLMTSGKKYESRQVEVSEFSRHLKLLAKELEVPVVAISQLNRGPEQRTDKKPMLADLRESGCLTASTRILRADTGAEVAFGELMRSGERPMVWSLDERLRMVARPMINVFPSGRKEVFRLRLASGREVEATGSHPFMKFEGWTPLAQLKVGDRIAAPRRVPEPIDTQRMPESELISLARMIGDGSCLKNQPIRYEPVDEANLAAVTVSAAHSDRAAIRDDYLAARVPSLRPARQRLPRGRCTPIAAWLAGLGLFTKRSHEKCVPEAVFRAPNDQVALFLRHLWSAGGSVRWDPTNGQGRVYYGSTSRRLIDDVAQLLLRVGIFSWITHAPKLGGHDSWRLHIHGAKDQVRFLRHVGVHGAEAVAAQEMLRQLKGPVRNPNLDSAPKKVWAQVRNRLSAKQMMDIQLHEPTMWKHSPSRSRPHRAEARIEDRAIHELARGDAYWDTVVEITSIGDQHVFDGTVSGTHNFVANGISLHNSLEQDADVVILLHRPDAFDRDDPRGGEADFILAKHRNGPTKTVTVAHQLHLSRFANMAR
# [25] = target: T3, Mannose-6-phosphate isomerase (Homo sapiens, UniProt P34949); assay: human PMI inhibitors, high substrate, primary screen, biochemical, fluorescence intensity, high mannose 6-phosphate (AID 1220)
# T3 sequence (P34949 whole entry): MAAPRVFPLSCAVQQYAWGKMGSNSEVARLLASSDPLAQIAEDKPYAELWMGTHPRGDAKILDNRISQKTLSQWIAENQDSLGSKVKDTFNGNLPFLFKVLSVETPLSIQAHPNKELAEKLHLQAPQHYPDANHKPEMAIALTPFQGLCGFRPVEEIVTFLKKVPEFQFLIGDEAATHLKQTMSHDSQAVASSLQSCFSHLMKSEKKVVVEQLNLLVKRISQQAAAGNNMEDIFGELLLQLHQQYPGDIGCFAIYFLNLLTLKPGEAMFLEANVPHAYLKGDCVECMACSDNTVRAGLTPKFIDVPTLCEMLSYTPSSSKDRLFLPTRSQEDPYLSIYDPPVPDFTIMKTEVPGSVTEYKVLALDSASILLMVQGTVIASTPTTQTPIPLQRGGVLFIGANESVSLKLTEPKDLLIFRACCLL
# [26] = target: T1, Sentrin-specific protease 8; type: functional; remark: listed apart in the source
# [27] = target: Induced myeloid leukemia cell differentiation protein Mcl-1 (Homo sapiens, UniProt Q07820); type: functional
# Induced myeloid leukemia cell differentiation protein Mcl-1, sequence (Q07820 whole entry): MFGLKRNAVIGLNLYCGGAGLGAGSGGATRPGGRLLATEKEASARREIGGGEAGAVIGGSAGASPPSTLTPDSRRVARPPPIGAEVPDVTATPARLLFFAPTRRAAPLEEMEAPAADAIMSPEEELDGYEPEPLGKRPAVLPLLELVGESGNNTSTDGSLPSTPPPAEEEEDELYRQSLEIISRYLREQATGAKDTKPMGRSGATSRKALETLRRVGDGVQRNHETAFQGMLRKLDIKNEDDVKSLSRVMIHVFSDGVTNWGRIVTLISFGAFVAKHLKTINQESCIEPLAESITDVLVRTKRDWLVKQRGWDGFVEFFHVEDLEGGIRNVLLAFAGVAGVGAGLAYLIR
# [28] = target: T4, Caspase-3 (Homo sapiens, UniProt P42574); assay: Dose-response confirmation of uHTS inhibitor hits of Sentrin-Specific Protease 8 in a Caspase-3 Fluorescence assay.; type: functional
# T4 sequence (P42574 whole entry): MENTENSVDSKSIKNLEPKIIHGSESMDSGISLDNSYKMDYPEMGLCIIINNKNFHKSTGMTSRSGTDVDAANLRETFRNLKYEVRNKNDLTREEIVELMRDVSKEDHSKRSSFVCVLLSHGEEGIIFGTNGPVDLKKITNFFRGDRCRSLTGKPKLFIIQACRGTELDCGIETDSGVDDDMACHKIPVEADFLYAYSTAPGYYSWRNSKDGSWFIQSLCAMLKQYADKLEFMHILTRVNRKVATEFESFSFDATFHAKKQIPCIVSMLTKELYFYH
# [29] = target: T5, Protein RecA (Mycobacterium tuberculosis, UniProt P9WHJ3); assay: Fluorescence Cell-Free Homogeneous Dose Retest to Identify Inhibitors of RecA-Intein Splicing Activity. [Related pubchem assays (depositor defined):AID2097, AID2223, AID489010, AID492950]; type: functional
# T5 sequence (P9WHJ3 whole entry): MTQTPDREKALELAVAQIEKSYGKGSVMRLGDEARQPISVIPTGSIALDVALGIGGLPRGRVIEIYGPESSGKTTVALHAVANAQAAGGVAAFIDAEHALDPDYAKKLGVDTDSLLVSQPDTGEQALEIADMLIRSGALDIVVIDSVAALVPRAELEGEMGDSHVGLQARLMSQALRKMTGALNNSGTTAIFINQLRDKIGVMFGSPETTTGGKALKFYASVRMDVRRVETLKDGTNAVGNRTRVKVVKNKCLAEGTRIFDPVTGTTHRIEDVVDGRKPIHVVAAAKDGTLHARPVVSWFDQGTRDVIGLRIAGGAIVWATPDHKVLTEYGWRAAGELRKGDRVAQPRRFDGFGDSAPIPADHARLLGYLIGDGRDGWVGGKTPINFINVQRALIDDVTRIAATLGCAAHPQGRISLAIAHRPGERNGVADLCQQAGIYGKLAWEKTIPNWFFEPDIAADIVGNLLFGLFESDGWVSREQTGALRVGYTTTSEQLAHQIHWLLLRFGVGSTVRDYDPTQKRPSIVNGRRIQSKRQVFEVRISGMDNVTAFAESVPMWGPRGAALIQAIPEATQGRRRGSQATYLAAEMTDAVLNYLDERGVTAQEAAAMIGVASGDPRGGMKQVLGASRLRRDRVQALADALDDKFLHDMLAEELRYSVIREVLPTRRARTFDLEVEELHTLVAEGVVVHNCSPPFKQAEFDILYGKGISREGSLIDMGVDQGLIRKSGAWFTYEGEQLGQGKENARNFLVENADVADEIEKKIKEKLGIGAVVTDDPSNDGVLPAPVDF
# [30] = cytotoxicity toward NIH3T3 fibroblasts, dose response, counter-screen, cell-based, ATP luminescence, mouse fibroblasts (AID 2010); type: functional;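 note: cells exposed to compound for about 90 hours before reading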
# [31] = THP-1 cell cytotoxicity, dose response, cytotoxicity control for non-replicating M. tuberculosis project (AID 489025); type: functional
# [32] = inhibitors of intracellular T. cruzi replication, confirmation, NIH3T3 host cells, beta-gal luminescence (AID 2044); type: functional, cell-based;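 note: intracellular parasites grown in NIH/3T3 mouse fibroblasts as host cells; luminescent beta-galactosidase reporter signal from transgenic T. cruzi replicating inside host cells; inhibitors lower the luminescence signal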
# [33] = cells; type: functional, cell-based
# [34] = target: Albumin (Bos taurus, UniProt P02769); assay: Counterscreen for inhibitors of T-cell receptor (TCR)-CD3 interaction: Fluorescence-based biochemical high throughput dose response assay to identify inhibitors of T-cell receptor (TCR)-CD3 interaction using a TAMRA-labeled BSA probe.; type: functional
# Albumin, sequence (P02769 whole entry): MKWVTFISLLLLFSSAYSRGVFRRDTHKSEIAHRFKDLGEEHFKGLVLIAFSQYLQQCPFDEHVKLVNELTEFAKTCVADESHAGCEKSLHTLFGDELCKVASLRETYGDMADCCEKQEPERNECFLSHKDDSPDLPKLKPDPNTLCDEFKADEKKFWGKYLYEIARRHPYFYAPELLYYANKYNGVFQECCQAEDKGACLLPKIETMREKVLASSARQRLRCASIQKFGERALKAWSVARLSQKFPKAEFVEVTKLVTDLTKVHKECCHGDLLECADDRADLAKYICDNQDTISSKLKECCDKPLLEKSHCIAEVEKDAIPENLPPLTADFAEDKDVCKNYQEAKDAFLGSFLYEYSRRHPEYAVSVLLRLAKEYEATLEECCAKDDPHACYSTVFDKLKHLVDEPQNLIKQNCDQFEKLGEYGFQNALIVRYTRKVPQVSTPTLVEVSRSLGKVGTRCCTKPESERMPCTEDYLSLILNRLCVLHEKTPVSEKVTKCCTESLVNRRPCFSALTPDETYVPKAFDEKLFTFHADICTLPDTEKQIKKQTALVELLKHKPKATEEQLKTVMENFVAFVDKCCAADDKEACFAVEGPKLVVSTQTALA
# [35] = cells; type: functional, cell-based; remark: listed apart in the source
# [36] = HepG2 cell cytotoxicity, dose response, cytotoxicity control for non-replicating M. tuberculosis project (AID 489018); type: functional; conditions: Mycobacterium tuberculosis
# [37] = Vero E6 cell cytotoxicity, dose response, cytotoxicity control for non-replicating M. tuberculosis project, secondary assay (AID 492998); type: functional, VeroE6; conditions: Vero C1008
# Fructose-bisphosphate aldolase, sequence (P9WQA3 whole entry): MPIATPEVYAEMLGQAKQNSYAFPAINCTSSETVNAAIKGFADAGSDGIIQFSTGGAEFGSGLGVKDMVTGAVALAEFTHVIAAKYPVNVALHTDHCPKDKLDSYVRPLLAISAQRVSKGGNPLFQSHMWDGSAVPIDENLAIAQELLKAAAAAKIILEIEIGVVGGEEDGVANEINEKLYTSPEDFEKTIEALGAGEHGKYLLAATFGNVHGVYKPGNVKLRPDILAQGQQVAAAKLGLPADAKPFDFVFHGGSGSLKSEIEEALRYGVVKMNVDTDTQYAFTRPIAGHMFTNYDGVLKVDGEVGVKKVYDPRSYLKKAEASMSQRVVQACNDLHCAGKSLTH
smiles,measurement,setting,value
CC1=CC2=NCC(O)CN2C=C1 (configuration not stated),IC50,[1],5.11 µM (active)
O=C1NC(=O)N(CCC2=CCCCC2)C(=O)/C1=C\c1cccs1,AC50,[2],1.06 µM (active)
COc1ccc(-n2cc(-c3ccccc3)c3c(N4CCOCC4)ncnc32)cc1,AC50,[3],3.78 µM (active)
same,IC50,[4],> 79 µM (inactive)
same,AC50,[5],48.5 µM (active)
O=C(Nc1ccc(F)cc1F)c1sccc1SCc1cccc(C(F)(F)F)c1,IC50,[6],77.9 µM (active)
COc1ccc(S(=O)(=O)N(CC(C)C)CC(C)C)c2cccnc12,AC50,[7],19.5 µM (active)
same,AC50,[8],39 µM (active)
COc1cccc(-c2ccc3c(c2)[C@H]2[C@H](CCN2C(=O)c2ccccc2F)[C@H](CO)N3C)c1,AC50,[9],25.3 µM (active)
same,AC50,[10],22.7 µM (active)
same,AC50,[11],24 µM (active)
same,AC50,[12],57.8 µM (active)
same,AC50,[13],13.8 µM (active)
same,AC50,[14],5.53 µM (active)
same,AC50,[15],20.5 µM (active)
same,AC50,[16],7.07 µM (active)
same,AC50,[17],8.72 µM (active)
COC(=O)C1=C(C)N(Cc2ccc(Cl)cc2)C(=S)NC1c1ccccc1 (configuration not stated),AC50,[18],25.9 µM (active)
same,AC50,[19],36.1 µM (active)
COc1cccc(-c2cccc(-c3nc(C(=O)NCC(F)(F)F)cc4c3[C@H](CCO)N([S@@+]([O-])C(C)(C)C)C4)c2)c1,AbsAC35,[20],43.43 µM
same,AbsAC35,[21],56.19 µM
Nc1scc2c(C(=O)N/N=C/c3ccc(Cl)cc3)nn(-c3ccccc3)c(=O)c12,IC50,[22],0.577 µM (active)
same,IC50,[23],70.6 µM (active)
same,AC50,[24],7.02 µM (active)
same,IC50,[25],> 50 µM (not active)
same,IC50,[26],0.5 µM (active)
same,IC50,[27],1.95 µM (active)
same,IC50,[28],4.47 µM (active)
same,EC50,[29],5.71 µM (active)
O=C(N/N=C/c1cc(Br)cc(Br)c1O)c1cccc(N2CCCC2=O)c1,EC50,[30],> 60 µM (not active)
same,CC50,[31],15.2 µM (active)
same,EC50,[32],1.55 µM (active)
same,EC50,[33],138 µM (active)
same,IC50,[34],> 94.1 µM (inactive)
same,EC50,[35],> 350 µM (not active)
same,CC50,[36],> 20 µM (active)
same,CC50,[37],15 µM (active)
